Entries after “also recorded” stand apart in the source; their conditions may differ.
Tests used:
HarmNPC2-1 [1] = target: T1, HarmNPC2-1 (Helicoverpa armigera, UniProt A0A2W1BYA3); experiment: Competitive binding experiments (displacement of 1-NPN); details: for displacing the fluorescent probe from the complex: concentrations up to 16 μM, protein and 1-NPN both 2 μM; for binding / affinity for HarmNPC2-1 (in words): competitive binding with 1-NPN, ligand 0.5–16 μM
Method: (§1) Emission fluorescence spectra were recorded on a Horiba scientific Fluoromax-4 spectrofluorometer at room temperature in a right-angle configuration, with a 1 cm light path quartz cuvette and 5 nm slits for both excitation and emission. Proteins were dissolved in 50 mM Tris–HCl buffer, pH 7.4, while ligands were added as 1 mM methanol solutions.
The probe was excited at 337 nm and emission spectra were recorded between 380 and 450 nm. […] Data obtained with 1-NPN were analyzed with Prism software.

HarmNPC2-1 [2] = target: T1, HarmNPC2-1; experiment: Quenching of intrinsic tryptophan fluorescence; type: binding; details: Figure 2C
Method: as §1

T1 sequence (A0A2W1BYA3 entry or part of it): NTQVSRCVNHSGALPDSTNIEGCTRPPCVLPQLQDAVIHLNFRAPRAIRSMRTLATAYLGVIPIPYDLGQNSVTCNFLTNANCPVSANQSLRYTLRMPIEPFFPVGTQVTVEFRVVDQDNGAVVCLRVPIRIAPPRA

Row | displacing the fluorescent probe from the complex (HarmNPC2-1 [1]) | Structure (SMILES) | binding / affinity for HarmNPC2-1 (in words) (HarmNPC2-1 [1]) | quenching of intrinsic tryptophan fluorescence (HarmNPC2-1 [2])
1 | ineffective | CC(C)=CCC[C@@H](C)CC=O (racemic) [citronellal] |  | 
2 | ineffective | CCCCCCCO [1-heptanol] |  | 
3 | ineffective | C=CC(O)CCCCC (centres unmarked) [1-octen-3-ol] |  | 
4 | ineffective | CCCC=CC=CC=O [2,4-octadienal] |  | 
5 | ineffective | CCCCC(C)O (centres unmarked) [2-hexanol] |  | 
6 | ineffective | O=Cc1ccccc1O [2-hydroxy benzaldehyde] |  | 
7 | ineffective | CCCC(O)CC (centres unmarked) [3-hexanol] |  | 
8 | ineffective | CCCCCC/C=C\CCCCCCCC=O [(Z)-9-hexadecenal] |  | 
9 | ineffective | CCCC/C=C\CCCCCCCCCC=O [(Z)-11-hexadecenal] |  | 
10 | ineffective | CCCC/C=C\CCCCCCCCCCO [(Z)-11-hexadecenol] |  | 
11 | ineffective | CCCC/C=C\CCCCCCCCCCOC(C)=O [(Z)-11-hexadecenyl acetate] |  | 
12 | ineffective | CC/C=C\CCO [Z3-hexen-1-ol] |  | 
13 | ineffective | COC(=O)CC(C)CCC=C(C)C (centres unmarked) [citronellic acid methyl ester] |  | 
14 |  | COc1cc(/C=C/C=O)ccc1O [coniferyl aldehyde] | moderate binding | 
15 | ineffective | CCCCCCCCCC=O [decanal] |  | 
16 | ineffective | CCCCCCCCCC(=O)O [decanoic acid] |  | 
17 | ineffective | CC(C)=CCC/C(C)=C/CC/C(C)=C/CO [farnesol] |  | 
18 |  | Cc1cc2c(C(C)C)c(O)c(O)c(C=O)c2c(O)c1-c1c(C)cc2c(C(C)C)c(O)c(O)c(C=O)c2c1O [gossypol] | best ligand; also recorded: the best | quenching of intrinsic tryptophan fluorescence in a dose-dependent fashion
19 |  | COc1ccc([C@@H]2CC(=O)c3c(O)cc(O[C@@H]4O[C@H](CO[C@@H]5O[C@@H](C)[C@H](O)[C@@H](O)[C@H]5O)[C@@H](O)[C@H](O)[C@H]4O)cc3O2)cc1O [hesperidin] | the worst | 
20 | ineffective | COC(=O)C=Cc1ccccc1 [methyl cinnamate] |  | 
21 | ineffective | CC/C=C\CC1C(=O)CCC1CC(=O)OC (centres unmarked) [methyl jasmonate] |  | 
22 | ineffective | CCCCCCCC=O [octanal] |  | 
23 | ineffective | CCCCCCCC(=O)O [octanoic acid] |  | 
24 |  | O=c1c(O)c(-c2ccc(O)c(O)c2)oc2cc(O)cc(O)c12 [quercetin] |  | quenching of intrinsic tryptophan fluorescence in a dose-dependent fashion
25 | ineffective | CC1=C(C=O)C(C)(C)CC=C1 [safranal] |  | 
26 | ineffective | COc1cc(C=O)ccc1O [vanillin] | failed to bind | 
27 | ineffective | CC(=O)/C=C/C1=C(C)CCCC1(C)C [β-ionone] |  | 

Row | Structure (SMILES) | displacing the fluorescent probe from the complex (HarmNPC2-1 [1]) | binding / affinity for HarmNPC2-1 (in words) (HarmNPC2-1 [1]) | quenching of intrinsic tryptophan fluorescence (HarmNPC2-1 [2])
28 | O=CCc1ccccc1 [2-phenylacetaldehyde] | ineffective |  | 
29 | COc1ccc(C=O)cc1 [4-methoxy benzaldehyde] | ineffective |  | 
30 | Cc1ccc(C=O)cc1 [4-methyl benzaldehyde] | ineffective |  | 
31 | O=Cc1ccccc1 [benzaldehyde] | ineffective |  | 
32 | COc1cc(CNC(=O)CCCC/C=C/C(C)C)ccc1O [capsaicin] | ineffective | failed to bind | 
33 | C=C(C)C1CC=C(C)C(=O)C1 (centres unmarked) [carvone] | ineffective |  | 
34 | O=C/C=C/c1ccccc1 [cinnamaldehyde] | ineffective | failed to bind | 
35 | C=CCc1ccc(O)c(OC)c1 [eugenol] | ineffective | failed to bind | 
36 | c1ccc2[nH]ccc2c1 [indole] | ineffective |  | 
37 | OCc1ccc2c(c1)OCO2 [piperonyl alcohol] | ineffective | failed to bind | 
38 | C[C@]12CC[C@@H]3c4ccc(O)cc4CC[C@H]3[C@@H]1CC[C@@H]2O [β-estradiol] | ineffective |  | 

From PMC5810286, “Niemann-Pick C2 Proteins: A New Function for an Old Family” (Frontiers in Physiology, 2018)
